The test system of one experiment is MOLT-4 cells. Briefly: MOLT-4 cell viability, MTT assay. The format is cell-based. The settings on record: Homo sapiens, MOLT-4, 48 h, 48 h exposure. In outline: (§1)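 Viability read by MTT reduction (OD 540 nm after overnight SDS/HCl lysis) after 48 h compound treatment of cells in RPMI 1640/10% FBS. Triplicates at nine concentrations, 3.16-fold apart; four-parameter curve fitting yields IC50.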
A general note: Tetrazolium dyes change colour on reduction, which living cells bring about.

The next experiment has as its target BCLXL (Homo sapiens, UniProt Q07817, V10N/V9A). Briefly: Fluorescence polarisation assay (PUMA-based probe displacement). Note: 20 nM protein, 10 nM fluorescent probe. The format is binding.
Another experiment deals with H146 cells. The experiment in a line: H146 cell viability, MTT assay. The format is cell-based. The settings on record: Homo sapiens, NCI-H146, 48 h, 48 h exposure. In outline:
as §1

A value given as a limit tells only on which side of the number the result lay.

Sequence of BCLXL (Q07817 with tags, fused parts or gaps V9A/V10N): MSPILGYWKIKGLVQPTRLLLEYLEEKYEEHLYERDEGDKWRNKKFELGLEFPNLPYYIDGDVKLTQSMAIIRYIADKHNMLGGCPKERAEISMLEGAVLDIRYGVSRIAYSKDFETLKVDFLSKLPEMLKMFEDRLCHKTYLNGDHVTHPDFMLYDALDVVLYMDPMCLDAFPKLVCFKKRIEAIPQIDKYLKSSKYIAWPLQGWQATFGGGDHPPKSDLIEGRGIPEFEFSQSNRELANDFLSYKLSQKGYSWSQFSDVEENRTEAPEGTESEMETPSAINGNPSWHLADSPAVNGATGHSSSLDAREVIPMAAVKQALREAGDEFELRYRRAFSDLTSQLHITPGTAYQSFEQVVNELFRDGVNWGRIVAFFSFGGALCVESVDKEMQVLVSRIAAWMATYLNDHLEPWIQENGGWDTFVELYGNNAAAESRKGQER

Take `CCCN(c1cc(C)c(Nc2nc3ccccc3s2)nn1)c1nc(C(=O)O)cs1` [Example 45, 2-({6-[(1,3-Benzothiazol-2-yl)amino]-5-methylpyridazin-3-yl}(propyl)amino)-1,3-thiazole-4-carboxylic acid]: the IC50 is 11.7 µM in the experiment on MOLT-4 cells and at least 11.8 µM in the experiment with H146 cells. The Ki on BCLXL came to 0.014 µM.
In the same order, the values of `CCN(CC)CCCN(c1cc(C)c(Nc2nc3ccccc3s2)nn1)c1nc(C(=O)O)cs1` [Example 46, 2-({6-[(1,3-Benzothiazol-2-yl)amino]-5-methylpyridazin-3-yl}[3-(diethylamino)propyl]amino)-1,3-thiazole-4-carboxylic acid] are over 15 µM, over 15 µM and 0.19 µM.
In the same order, the values of `COCCCN(c1cc(C)c(Nc2nc3ccccc3s2)nn1)c1nc(C(=O)O)cs1` [Example 47, 2-({6-[(1,3-Benzothiazol-2-yl)amino]-5-methylpyridazin-3-yl}(3-methoxypropyl)amino)-1,3-thiazole-4-carboxylic acid] are over 15 µM, at least 9.62 µM and 0.023 µM.
For `Cc1cc(N(CCCO)c2nc(C(=O)O)cs2)nnc1Nc1nc2ccccc2s1` [Example 49, 2-({6-[(1,3-Benzothiazol-2-yl)amino]-5-methylpyridazin-3-yl}(3-hydroxypropyl)amino)-1,3-thiazole-4-carboxylic acid], the IC50 with MOLT-4 cells and with H146 cells was over 15 µM throughout. At BCLXL, the inhibitory constant (Ki) came to 0.0081 µM.
On to `COCCCN(c1cc(C)c(Nc2nc3ccccc3s2)nn1)c1nc(C(=O)O)c(-c2cnn(CC34CC5CC(CC(C5)C3)C4)c2C)s1` [Example 52, 5-{1-[(Adamantan-1-yl)methyl]-5-methyl-1H-pyrazol-4-yl}-2-({6-[(1,3-benzothiazol-2-yl)amino]-5-methylpyridazin-3-yl}(3-methoxypropyl)amino)-1,3-thiazole-4-carboxylic acid], for which the half-maximal inhibitory concentration (IC50) in the experiment with MOLT-4 cells worked out at 8.36 µM; in the experiment with H146 cells it was 13 µM. Further, the inhibition constant (Ki) on BCLXL came out at 0.09 µM.
As to `Cc1c(-c2sc(N(C)c3cc(C4CC4)c(Nc4nc5ccccc5s4)nn3)nc2C(=O)O)cnn1CC12CC3CC(CC(C3)C1)C2` [Example 53, 5-{1-[(Adamantan-1-yl)methyl]-5-methyl-1H-pyrazol-4-yl}-2-({6-[(1,3-benzothiazol-2-yl)amino]-5-cyclopropylpyridazin-3-yl}(methyl)amino)-1,3-thiazole-4-carboxylic acid], the IC50 with MOLT-4 cells was 0.701 µM; in the experiment with H146 cells it was 1.65 µM. Further, the inhibitory constant (Ki) at BCLXL came out at 0.015 µM.
In the same order, the values of `Cc1cc(N(C)c2ccc(C(=O)O)s2)nnc1Nc1nc2ccccc2s1` [Example 56, 5-({6-[(1,3-Benzothiazol-2-yl)amino]-5-methylpyridazin-3-yl}(methyl)amino)thiophene-2-carboxylic acid] are over 15 µM, over 15 µM and over 10 µM.
For `Cc1c(Nc2nc(C(=O)O)cs2)nnc(Nc2nc3cc(F)c(F)cc3s2)c1C` [Example 57, 2-[[6-[(5,6-Difluoro-1,3-benzothiazol-2-yl)amino]-4,5-dimethyl-pyridazin-3-yl]amino]thiazole-4-carboxylic acid] the same measures were over 15 µM, 13.4 µM and 0.35 µM.
For `Cc1c(Nc2nc(C(=O)O)cs2)nnc(Nc2nc3cc(F)ccc3s2)c1C` [Example 58, 2-[[6-[(5-Fluoro-1,3-benzothiazol-2-yl)amino]-4,5-dimethyl-pyridazin-3-yl]amino]thiazole-4-carboxylic acid] the same measures were over 15 µM, over 15 µM and 0.049 µM.
As for `Cc1cc(N(C)c2nc(C(=O)O)c(CCCOC3CCCCC3)s2)nnc1Nc1nc2ccccc2s1` [Example 61, 2-({6-[(1,3-Benzothiazol-2-yl)amino]-5-methylpyridazin-3-yl}(methyl)amino)-5-[3-(cyclohexyloxy)propyl]-1,3-thiazole-4-carboxylic acid], the figures for the IC50 with MOLT-4 cells and with H146 cells were 0.192 µM and 0.593 µM, respectively. At BCLXL, the inhibition constant (Ki) is under 0.001 µM.
For `COCCCc1sc(N(CCCOC)c2cc(C)c(Nc3nc4ccccc4s3)nn2)nc1C(=O)O` [Example 64, 2-({6-[(1,3-Benzothiazol-2-yl)amino]-5-methylpyridazin-3-yl}(3-methoxypropyl)amino)-5-(3-methoxypropyl)-1,3-thiazole-4-carboxylic acid] the same measures were 3.59 µM, 0.0224 µM and 0.031 µM.
For `COCCCN(c1cc(C)c(Nc2nc3ccccc3s2)nn1)c1nc(C(=O)O)c(CCCOC2CCCCC2)s1` [Example 66, 2-({6-[(1,3-Benzothiazol-2-yl)amino]-5-methylpyridazin-3-yl}(3-methoxypropyl)amino)-5-[3-(cyclohexyloxy)propyl]-1,3-thiazole-4-carboxylic acid], the 50% inhibitory concentration (IC50) with MOLT-4 cells was determined as 0.527 µM; with H146 cells it was 1.16 µM. At BCLXL, the Ki was 0.0019 µM.
As to `COCCCN(c1cc(C)c(Nc2nc3ccccc3s2)nn1)c1nc(C(=O)O)c(CCCOc2ccccc2F)s1` [Example 67, 2-({6-[(1,3-Benzothiazol-2-yl)amino]-5-methylpyridazin-3-yl}(3-methoxypropyl)amino)-5-[3-(2-fluorophenoxy)propyl]-1,3-thiazole-4-carboxylic acid], the values for the half-maximal inhibitory concentration (IC50) in the experiment on MOLT-4 cells and in the experiment on H146 cells were 0.754 µM and 0.71 µM, respectively. Moreover, the inhibition constant Ki at BCLXL is under 0.001 µM.
In the same order, the values of `Cc1cc(N(C)c2nc(C(=O)O)c(N3CC(OCc4ccccc4)C3)s2)nnc1Nc1nc2ccccc2s1` [Example 68, 2-({6-[(1,3-Benzothiazol-2-yl)amino]-5-methylpyridazin-3-yl}(methyl)amino)-5-[3-(benzyloxy)azetidin-1-yl]-1,3-thiazole-4-carboxylic acid] are 0.279 µM, 2.6 µM and 0.0057 µM.
Take `Cc1cc(N(C)c2nc(C(=O)O)c(N3CC(Oc4ccccc4)C3)s2)nnc1Nc1nc2ccccc2s1` [Example 69, 2-({6-[(1,3-Benzothiazol-2-yl)amino]-5-methylpyridazin-3-yl}(methyl)amino)-5-(3-phenoxyazetidin-1-yl)-1,3-thiazole-4-carboxylic acid]: the IC50 in the experiment on MOLT-4 cells was determined as 0.446 µM; with H146 cells it was 0.686 µM. For the same molecule, the inhibitory constant (Ki) on BCLXL is 0.0042 µM.
In the same order, the values of `Cc1cc(N(C)c2nc(C(=O)O)c(N3CC[C@H](OCc4ccccc4)C3)s2)nnc1Nc1nc2ccccc2s1` [Example 70, 2-({6-[(1,3-Benzothiazol-2-yl)amino]-5-methylpyridazin-3-yl}(methyl)amino)-5-[(3S)-3-(benzyloxy)pyrrolidin-1-yl]-1,3-thiazole-4-carboxylic acid] are over 41.6 µM, over 15 µM and 0.03 µM.
In the same order, the values of `Cc1cc(N(C)c2nc(C(=O)O)c(N3CC[C@@H](OCc4ccccc4)C3)s2)nnc1Nc1nc2ccccc2s1` [Example 71, 2-({6-[(1,3-Benzothiazol-2-yl)amino]-5-methylpyridazin-3-yl}(methyl)amino)-5-[(3R)-3-(benzyloxy)pyrrolidin-1-yl]-1,3-thiazole-4-carboxylic acid] are over 15 µM, over 15 µM and over 10 µM.
As to `Cc1cc(N(C)c2nc(C(=O)O)c(N3CCC(OCc4ccccc4)CC3)s2)nnc1Nc1nc2ccccc2s1` [Example 75, 2-({6-[(1,3-Benzothiazol-2-yl)amino]-5-methylpyridazin-3-yl}(methyl)amino)-5-[4-(benzyloxy)piperidin-1-yl]-1,3-thiazole-4-carboxylic acid], the values for the IC50 with MOLT-4 cells and with H146 cells were 2.92 µM and over 15 µM, respectively. On BCLXL, the Ki is under 0.001 µM.
For `Cc1cc(N(C)c2nc(C(=O)O)c(N3CC[C@H](Oc4ccccc4)C3)s2)nnc1Nc1nc2ccccc2s1` [Example 77, 2-({6-[(1,3-Benzothiazol-2-yl)amino]-5-methylpyridazin-3-yl}(methyl)amino)-5-[(3S)-3-phenoxypyrrolidin-1-yl]-1,3-thiazole-4-carboxylic acid] the same measures were 6.59 µM, at least 14.9 µM and 0.11 µM.
For `Cc1cc(N(C)c2nc(C(=O)O)c(C3CCC3)s2)nnc1Nc1nc2ccccc2s1` [Example 78, 2-({6-[(1,3-Benzothiazol-2-yl)amino]-5-methylpyridazin-3-yl}(methyl)amino)-5-cyclobutyl-1,3-thiazole-4-carboxylic acid] the same measures were over 15 µM, over 15 µM and 0.11 µM.
For `Cc1cc(N(C)c2nc(C(=O)O)c(CCCOc3ccc(C#CCN(C)C(=O)OC(C)(C)C)cc3F)s2)nnc1Nc1nc2ccccc2s1` [Example 82, 2-({6-[(1,3-Benzothiazol-2-yl)amino]-5-methylpyridazin-3-yl}(methyl)amino)-5-{3-[4-(3-{[(tert-butoxy)carbonyl](methyl)amino}prop-1-yn-1-yl)-2-fluorophenoxy]propyl}-1,3-thiazole-4-carboxylic acid] the same measures were 0.0683 µM, 0.0988 µM and under 0.001 µM.
For `Cc1cc(N(C)c2nc(C(=O)O)c(C3CCNCC3)s2)nnc1Nc1nc2ccccc2s1` [Example 83, 2-({6-[(1,3-Benzothiazol-2-yl)amino]-5-methylpyridazin-3-yl}(methyl)amino)-5-(piperidin-4-yl)-1,3-thiazole-4-carboxylic acid], the IC50 in the experiment with MOLT-4 cells and with H146 cells was over 15 µM each time. The inhibition constant (Ki) at BCLXL came to 0.32 µM.
Take `Cc1cc(N(C)c2nc(C(=O)O)c(C3CCN(C(=O)OC(C)(C)C)CC3)s2)nnc1Nc1nc2ccccc2s1` [Example 84, 2-({6-[(1,3-Benzothiazol-2-yl)amino]-5-methylpyridazin-3-yl}(methyl)amino)-5-{1-[(tert-butoxy)carbonyl]piperidin-4-yl}-1,3-thiazole-4-carboxylic acid]: the half-maximal inhibitory concentration (IC50) in the experiment on MOLT-4 cells is 7.57 µM; with H146 cells, over 15 µM. The inhibition constant (Ki) on BCLXL worked out at 0.049 µM.

By IC50 is commonly meant the concentration needed to halve the response being measured. A high value points to weaker potency in that assay. For orientation: Ki means the equilibrium dissociation constant of an inhibitor or competing ligand from its target.
